Tests used:
[1] = test system: rat femur; assay: Neo-osteogenesis action in rat femur; assay type: in vivo; conditions: female SD rats, one week after administration; for Bone mineral content of femur 1/3 center region (mg) Left femur (administered with compound): 100 μg test compound in in situ-solidified gel solution injected between quadriceps and periosteum; for Bone mineral content of femur 1/3 center region (mg) Right femur (no administration of compound): contralateral femur, 100 μg test compound given at left femur
Protocol: Eight weeks old female SD rats (Charles River Japan) were fixed in the side lying position under triple anesthesia (medetomidine hydrochloride, midazolam, and butorphanol tartrate). After hair of the left femoral region was shaved with a hair clipper, and disinfection treatment was performed with 70% ethanol, an in situ-solidified gel solution of a test compound, specifically, a test compound dissolved in poly(lactic-co-glycolic acid) (RESOMER RG502H, produced by Evonik Industries)/poly(lactic-co-glycolic acid)-polyethylene glycol block copolymer (5050 DLG mPEG 5000, produced by Lakeshore Biomaterials)/N-methyl-2-pyrroridone (produced by Wako) (weight ratio 47%/3%/50%), was filled in a 1-mL syringe, a 21G injection needle was attached to the syringe, and the needle was transdermally stabbed from the quadriceps to the periosteum near the center of the femoral diaphyseal. Then, 100 μg as the amount of the test compound, or 50 μL as the administration volume of the solution was injected between the quadriceps and the periosteum, and the injection needle was drawn out. To the rats of the control group, the aforementioned in situ-solidified gel solution alone was administered. One week after the administration of the drug solution, the triple anesthesia was given to the animals, and they were fixed in the supine position, and euthanized by bleeding. […], circumferential tissues such as muscles were removed, the bone mineral content of the whole femur was measured by using a bone mineral analyzer DCS-600EX (produced by ALOKA), then it was divided into three portions along the long axis, and the bone mineral content of the center part (diaphysis) was evaluated. The test was performed with the groups each consisting of 6 animals.

[2] = target: T1, human EP4 receptor (Homo sapiens, UniProt P35408); assay: Measurement of EP4 agonist activity (cAMP production); assay type: cell-based; design: expressed in transfected cells; host or cells: HEK293; conditions: cAMP production in HEK293 cells stably expressing human EP4 receptor; average values where measured two or more times
T1 sequence (P35408 whole entry): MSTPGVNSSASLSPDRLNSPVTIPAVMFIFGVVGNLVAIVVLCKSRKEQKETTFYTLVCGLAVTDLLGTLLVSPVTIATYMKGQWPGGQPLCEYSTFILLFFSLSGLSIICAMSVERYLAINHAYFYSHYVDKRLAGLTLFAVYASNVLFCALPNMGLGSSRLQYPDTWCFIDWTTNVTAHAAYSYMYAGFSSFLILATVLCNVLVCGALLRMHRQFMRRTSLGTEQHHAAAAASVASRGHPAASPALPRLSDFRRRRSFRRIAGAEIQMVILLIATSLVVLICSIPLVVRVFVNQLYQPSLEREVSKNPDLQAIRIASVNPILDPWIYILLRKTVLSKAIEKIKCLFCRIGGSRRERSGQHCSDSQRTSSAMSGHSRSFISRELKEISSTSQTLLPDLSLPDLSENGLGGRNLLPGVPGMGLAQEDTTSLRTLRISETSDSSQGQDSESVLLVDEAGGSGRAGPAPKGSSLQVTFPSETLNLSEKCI
Protocol: In order to investigate EP4 receptor agonist activity of the compounds of the present invention, production of cAMP was measured in HEK293 cells that were made to stably express the human EP4 receptor.
By using Refseq Database, prostaglandin E receptor was searched for. As a result, gene information of human EP4 (NM_000958) receptor was obtained. On the basis of this sequence information, the human EP4 receptor gene was cloned by PCR in a conventional manner using human cDNA as the template, and HEK293 cells that were made to stably express the human EP4 receptor were established. When cryopreserved cells of this strain were thawed and used, cells subcultured three times or more within a certain period of time (about 1 to 2 weeks) by using Dulbecco's Modified Eagle's Medium (Dulbecco's Modified Eagle's Medium may be henceforth abbreviated as DMEM) containing 10% FBS, 50 units each of penicillin and streptomycin were used. The subcultured cells were inoculated in wells of a poly-D-lysine-coated 96-well plate at a density of 2×10^4 to 2.5×10^4 cells/well, and cultured for one day. The medium in the wells was removed by suction, then DMEM (80 μL) was added to each well, and incubation was performed at 37° C. for 15 minutes. […] The reaction was allowed at 37° C. for 30 minutes, then the medium was removed by suction, Assay/Lysis Buffer (100 μL) contained in cAMP Screen Kit (produced by Applied Biosystems) was added to terminate the reaction. Then, the reaction mixture was incubated at 37° C. for 30 minutes to prepare a sample for quantification of cAMP, and the amount of cAMP in the sample was quantified according to the method indicated in cAMP Screen Kit. By non-linear regression of the compound concentration and the amount of cAMP, the concentration of the compound required for increasing cAMP to 50% of the maximum increase (EC50 value) was calculated by using the Kaleida Graph.

[3] = target: T2, human EP3 receptor (Homo sapiens, UniProt P43115); assay: Receptor binding test, [3H]PGE2 binding inhibition, EP3; conditions: [3H]PGE2 1.54 nmol/L, membrane fraction HTS092M, 25°C 60 minutes
T2 construct: purchased Merck Millipore HTS092M
T2 sequence (P43115 1-390): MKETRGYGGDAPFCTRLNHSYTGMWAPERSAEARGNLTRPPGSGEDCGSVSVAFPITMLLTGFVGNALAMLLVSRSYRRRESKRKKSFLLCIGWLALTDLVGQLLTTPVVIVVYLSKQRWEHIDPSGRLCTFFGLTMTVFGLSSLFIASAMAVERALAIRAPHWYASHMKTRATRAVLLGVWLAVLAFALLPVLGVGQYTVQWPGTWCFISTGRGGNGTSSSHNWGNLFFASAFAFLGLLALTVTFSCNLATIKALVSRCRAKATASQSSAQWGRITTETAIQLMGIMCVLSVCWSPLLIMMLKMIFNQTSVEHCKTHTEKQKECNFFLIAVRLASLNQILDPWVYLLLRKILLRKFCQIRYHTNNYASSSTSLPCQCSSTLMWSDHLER
Protocol: (§1) In order to evaluate selectivity to each EP receptor subtype, [^3H]PGE2 binding-inhibition activities of test compounds for cell membranes on which human EP2, human EP3, and human EP4 receptors were stably expressed were measured.
(§2) As the membrane fractions of the prostaglandin E receptors EP2, EP3, and EP4, 10.0 μg protein/tube each of HTS185M, HTS092M, and HTS142M of Merck Millipore were used, respectively. Each membrane fraction was incubated with a reaction mixture (250 μL/tube) containing a test compound and [3H]PGE2 at 25° C. for 60 minutes. […] After the reaction, the membrane fraction was collected on filter paper by using a cell harvester, the filter paper was transferred to a measurement vial, and the measurement was performed on a liquid scintillation counter.
(§3) The nonspecific binding was determined as binding observed in the presence of excess amount (10 μM) of unlabeled PGE2. The measurement of the [3H]PGE2 binding-inhibiting activity of a test compound was performed by adding the test compound at various concentrations. The following buffers were used for the reaction.
Buffer for EP3: 50 mmol/L Tris-HCl buffer containing 10 mmol/L MgCl2, and 1 mmol/L EDTA

[4] = target: T3, human EP2 receptor (Homo sapiens, UniProt P43116); assay: Receptor binding test, [3H]PGE2 binding inhibition, EP2; conditions: [3H]PGE2 2.56 nmol/L, membrane fraction HTS185M, 25°C 60 minutes
T3 construct: purchased Merck Millipore HTS185M
T3 sequence (P43116 whole entry): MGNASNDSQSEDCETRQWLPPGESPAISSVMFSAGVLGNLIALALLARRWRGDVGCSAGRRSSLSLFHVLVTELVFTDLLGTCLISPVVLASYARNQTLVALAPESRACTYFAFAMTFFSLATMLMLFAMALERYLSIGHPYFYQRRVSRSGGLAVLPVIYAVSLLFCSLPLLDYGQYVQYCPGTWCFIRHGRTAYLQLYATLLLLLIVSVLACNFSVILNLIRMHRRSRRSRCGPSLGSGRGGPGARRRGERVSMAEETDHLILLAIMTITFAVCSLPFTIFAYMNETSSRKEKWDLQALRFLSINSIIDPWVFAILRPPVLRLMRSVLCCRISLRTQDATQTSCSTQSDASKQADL
Protocol: as §1, §2, §3
Buffer for EP2: 50 mmol/L HEPES-NaOH (pH 7.4) containing 5 mmol/L MgCl2, 1 mmol/L CaCl2), and 0.2% BSA

[5] = target: T1, human EP4 receptor; assay: Receptor binding test, [3H]PGE2 binding inhibition, EP4; design: purchased Merck Millipore HTS142M; conditions: [3H]PGE2 1.24 nmol/L, membrane fraction HTS142M, 25°C 60 minutes
Protocol: as §1, §2, §3
Buffer for EP4: 50 mmol/L HEPES-NaOH (pH7.4) containing 5 mmol/L MgCl2, 1 mmol/L CaCl2), and 0.2% BSA

| EC50 [2] [nM] | IC50 [3] [nM] | IC50 [4] [nM] | IC50 [5] [nM] | SMILES | Bone mineral content of femur 1/3 center region (mg) Left femur (administered with compound) [1] [mg] | Bone mineral content of femur 1/3 center region (mg) Right femur (no administration of compound) [1] [mg] |
| --- | --- | --- | --- | --- | --- | --- |
| 0.56 |  |  |  | Cc1cc(C#Cc2cccc(CC(O)CCN3CCSC(=O)N3CCc3ccc(C(=O)O)s3)c2)cs1 (stereo not drawn) [Example 6, 5-(2-(4-(3-Hydroxy-4-(3-((5-methylthiophen-3-yl)ethynyl)phenyl)butyl)-2-oxo-1,3,4-thiadiazinan-3-yl)ethyl)thiophene-2-carboxylic acid] | 81.3 ± 3.6 | 64.7 ± 2.4 |
| 0.065 |  |  |  | O=C(O)c1ccc(CCN2C(=O)SCCN2CCC(O)Cc2cccc(C#Cc3ccoc3)c2)s1 (stereo not drawn) [Example 10, 5-(2-(4-(4-(3-(Furan-3-ylethynyl)phenyl)-3-hydroxybutyl)-2-oxo-1,3,4-thiadiazinan-3-yl)ethyl)thiophene-2-carboxylic acid] | 78.0 ± 1.5 | 61.1 ± 0.5 |
| 0.34 |  |  |  | O=C(O)c1ccc(CCN2C(=O)SCCN2CCC(O)Cc2cccc(C#Cc3nccs3)c2)s1 (stereo not drawn) [Example 13, 5-(2-(4-(3-Hydroxy-4-(3-(thiazol-2-ylethynyl)phenyl)butyl)-2-oxo-1,3,4-thiadiazinan-3-yl)ethyl)thiophene-2-carboxylic acid] | 82.0 ± 3.4 | 65.5 ± 2.7 |
| 0.1 |  |  |  | Cc1cc(C#Cc2ccsc2)cc(CC(O)CCN2CCSC(=O)N2CCc2ccc(C(=O)O)s2)c1 (stereo not drawn) [Example 19, 5-(2-(4-(3-Hydroxy-4-(3-methyl-5-(thiophen-3-ylethynyl)phenyl)butyl)-2-oxo-1,3,4-thiadiazinan-3-yl)ethyl)thiophene-2-carboxylic acid] | 85.8 ± 2.3 | 59.6 ± 1.4 |
| 0.07 |  |  |  | O=C(O)c1ccc(CCN2C(=O)SCCN2CCC(O)Cc2ccc(F)c(C#Cc3ccsc3)c2)s1 (stereo not drawn) [Example 20, 5-(2-(4-(4-(4-Fluoro-3-(thiophen-3-ylethynyl)phenyl)-3-hydroxybutyl)-2-oxo-1,3,4-thiadiazinan-3-yl)ethyl)thiophene-2-carboxylic acid] | 79.4 ± 5.2 | 58.7 ± 3.6 |
| 0.055 |  |  |  | O=C(O)c1ccc(CCN2C(=O)SCCN2CCC(O)Cc2cc(C#Cc3ccsc3)cs2)s1 (stereo not drawn) [Example 22, 5-(2-(4-(3-Hydroxy-4-(4-(thiophen-3-ylethynyl)thiophen-2-yl)butyl)-2-oxo-1,3,4-thiadiazinan-3-yl)ethyl)thiophene-2-carboxylic acid] | 79.5 ± 1.9 | 60.3 ± 2.7 |
| 0.095 | > 1000 | > 1000 | 10.9 | O=C(O)c1ccc(CCN2C(=O)SCCN2CC[C@@H](O)Cc2cccc(C#Cc3cscn3)c2)s1 [Example 25, (S)-5-(2-(4-(3-Hydroxy-4-(3-(thiazol-4-ylethynyl)phenyl)butyl)-2-oxo-1,3,4-thiadiazinan-3-yl)ethyl)thiophene-2-carboxylic acid] | 79.1 ± 4.0 | 61.0 ± 2.1 |
| 0.17 | > 1000 | > 1000 | 16.2 | O=C(O)c1ccc(CCN2C(=O)SCCN2CC[C@@H](O)Cc2cccc(C#Cc3ccoc3)c2)s1 [Example 26, (S)-5-(2-(4-(4-(3-(Furan-3-ylethynyl)phenyl)-3-hydroxybutyl)-2-oxo-1,3,4-thiadiazinan-3-yl)ethyl)thiophene-2-carboxylic acid] | 87.0 ± 1.6 | 65.9 ± 1.2 |

— US11667630B2, “Nitrogen-containing 6-membered cyclic compound” (Asahi Kasei Pharma Corporation, priority 2017, dated 2023)
